Values of other authors as cited in publication PMC10177510, “A Multicenter, Open-Label, Phase I/II Study of FN-1501 in Patients with Advanced Solid Tumors” (Cancers, 2023).
In brackets after ≈: the same amount, converted by molar mass.

Test system: MV-4-11
Conditions: cited from earlier work

Q: For `CCc1nc(C(N)=O)c(Nc2ccc(N3CCC(N4CCN(C)CC4)CC3)c(OC)c2)nc1NC1CCOCC1` [gilteritinib, reference compound], which IC50 is on record?
A: 0.5 ng/mL (≈ 0.905 nM)
